Laboratory results: PubChem BioAssay AID977628 (Broad Institute, 2014)
Records with an inconclusive call do not appear. The source made the active and inactive calls.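 How the source made its calls: active means compound lowering the normal-ribosome reporter at least twice as much as the humanized-ribosome reporter, growth loss under a set limit; inconclusive means no clear call, values can overlap the other calls; inactive means the rest.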

Experiments:
Test in all cases: growth of wild-type and h24-humanized E. coli strains – h24 mutant RFP vs wild-type GFP, cherry-pick, dose response (AID 977628)
[1] = system: E. coli WT GFP strain growth, fluorescence, 24 h
[2] = system: E. coli h24 humanized mutant RFP strain growth, fluorescence, 24 h
[3] = system: E. coli mixed WT/h24 culture total growth, OD600, 24 h

Row | Structure (SMILES) | AC50 [1] | AC50 [2] [µM] | AC50 [3] [µM]
1 | Clc1ccc2nc(CN3CCCc4ccccc43)cn2c1 | > 100 µM (inactive) | > 100 | 
2 | Cc1cc(C)n2nc(C(=O)Nc3cccc(S(=O)(=O)N(C)c4ccccc4)c3)nc2n1 | > 100 µM (inactive) | > 100 | > 100
3 | O=C(O)c1cccnc1SCc1ccccc1Cl | > 100 µM (inactive) | > 100 | 
4 | CCCN(Cc1ccco1)S(=O)(=O)c1ccc(OC)c(OC)c1 |  | > 100 | > 100
5 | CCOc1ccc(NC(=O)CN(C)CC(=O)Nc2ccc(Br)cc2F)cc1OCC | > 100 µM (inactive) | > 100 | > 100
6 | O=C(Nc1cccc(Oc2ccc3c(c2)C(=O)NC3=O)c1)c1cccs1 | > 100 µM (inactive) | > 100 | 
7 | COC(C(=O)Nc1ccnn1C1CCN(Cc2ccc(Cl)s2)CC1)c1ccccc1 (stereo not drawn) |  | > 100 | > 100
8 | O=C(O)c1ccc(-c2noc(-c3cccc(Cl)c3)n2)cc1 | > 100 µM (inactive) | > 100 | 
9 | CCOc1ccc(S(=O)(=O)N(C)c2ccc(OCC(=O)Nc3ccc4[nH]c(=O)[nH]c4c3)cc2)cc1 | > 100 µM (inactive) | > 100 | 
10 | COc1ccccc1CNC(=O)CN1C(=O)NC(c2ccccc2)(c2ccccc2)C1=O | > 100 µM (inactive) | > 100 | > 100
11 | CCN(C(=O)CSc1cc(C)c2ccc(OC)cc2n1)C1CCS(=O)(=O)C1 (stereo not drawn) |  | > 100 | > 100
12 | Cc1nn(C)cc1NC(=O)C[C@@H]1CC[C@@H]2[C@@H](COc3ccc(NC(=O)C4CCC4)cc3C(=O)N2C)O1 | > 100 µM (inactive) | 3.9 | 
13 | COc1ccc(NC(=O)c2nc[nH]c2C(=O)N(C)Cc2ccccc2)cc1 | > 100 µM (inactive) | > 100 | 
14 | O=C(CN1C(=O)c2ccccc2C1=O)Nc1cccc(S(=O)(=O)Nc2ccccc2Cl)c1 | > 100 µM (inactive) | > 100 | 
15 | Cc1cc(C)cc(NC(=O)c2cccc(NC(=O)c3ccco3)c2)c1 | > 100 µM (inactive) | > 100 | 
16 | COc1ccc(CNC(=O)CSCc2c(F)cccc2Cl)cc1 | > 100 µM (inactive) | > 100 | 
17 | Cc1nnc2sc(SCC(=O)Nc3ccc(Br)cc3)nn2c1=O | > 100 µM (inactive) | > 100 | > 100
18 | O=S(=O)(NCc1ccc2c(c1)OCO2)c1ccc2c(c1)oc1ccccc12 | > 100 µM (inactive) | > 100 | 
19 | Nc1ccccc1Sc1ccc(C(F)(F)F)cc1[N+](=O)[O-] | > 100 µM (inactive) | > 100 | 52.3
20 | COCc1ccc(C(=O)N2CCCC(C(=O)c3ccc(Cl)cc3C)C2)o1 (stereo not drawn) |  | > 100 | > 100
21 | CC(=O)Nc1nc(C)c(-c2csc(Nc3ccccn3)n2)s1 | > 100 µM (inactive) | > 100 | 
22 | Cc1cccc(S(=O)(=O)Nc2ccc(-c3cn4ccccc4n3)cc2)c1 | > 100 µM (inactive) | > 100 | 29.7
23 | CC(=O)Nc1ccc2nc3ccccc3nc2c1 | > 100 µM (inactive) | > 100 | 
24 | NS(=O)(=O)c1cccc(NC(=O)c2cccc(-c3ccc(O)cc3)c2)c1 | > 100 µM (inactive) | > 100 | 50.8
25 | Cc1ccc(C(=O)Nc2cccc3[nH]c(C(F)(F)F)nc23)cc1 | > 100 µM (inactive) | > 100 | > 100

Row | Structure (SMILES) | AC50 [1] | AC50 [2] [µM] | AC50 [3] [µM]
26 | Cc1cccc(CSCC(=O)N2CCN(S(=O)(=O)c3ccccc3C#N)CC2)c1 | > 100 µM (inactive) | > 100 | 
27 | Cc1ccc(-c2nc3ccc(NS(=O)(=O)c4ccccc4)cc3[nH]2)o1 | > 100 µM (inactive) | 5.12 | 
28 | COC(=O)c1ccsc1NC(=O)c1cccc(OC)c1 |  | > 100 | > 100
29 | CCn1cc(Br)c(C(=O)Nc2ccc(C(=O)OC(C)C)cc2)n1 | > 100 µM (inactive) | 2.96 | 19.9
30 | O=C(O)CCSc1nc2ccccc2n1-c1ccccc1 | > 100 µM (inactive) | 29.2 | 36.4
31 | COc1ccccc1-c1nnc(C2CCN(S(=O)(=O)c3cccc([N+](=O)[O-])c3)CC2)o1 | > 100 µM (inactive) | > 100 | > 100
32 | Cc1nc(C)c(-c2ccn(S(=O)(=O)c3ccc(Cl)cc3)n2)o1 | > 100 µM (inactive) | > 100 | 45.5
33 | O=C1c2cccc(OCC(=O)N3CCCc4ccccc43)c2CCN1Cc1cccnc1 | > 100 µM (inactive) | 9.06 | 45.8
34 | O=C(Nc1ccc(S(=O)(=O)N2CCOCC2)cc1)c1ccc([N+](=O)[O-])o1 | > 100 µM (inactive) | 50.9 | 
35 | COc1cc(C)ccc1OCc1cc(C(=O)N2CCC(c3ccc(F)cc3)C2)no1 (stereo not drawn) | > 100 µM (inactive) | > 100 | 
36 | Cc1ccccc1-n1ncc2c(SCC(=O)N3c4ccccc4CC3C)ncnc21 (stereo not drawn) | > 100 µM (inactive) | > 100 | 
37 | O=C(COC(=O)C1CC2C=CC1C2)Nc1ccc([N+](=O)[O-])cc1 (stereo not drawn) |  | > 100 | > 100
38 | COc1ccc(NC(=O)c2sccc2-n2cccc2)cc1 | > 100 µM (inactive) | > 100 | 
39 | CCN(CC)CCN(C(=O)C1CCCCC1)c1nc2cc3c(cc2s1)OCO3 | > 100 µM (inactive) | > 100 | 
40 | Nc1[nH]c(C(=O)c2ccccc2)c(-c2ccc3c(c2)OCO3)c1C(=O)NCCc1c[nH]c2ccccc12 | > 100 µM (inactive) | > 100 | > 100
41 | COc1ccc(NC(=O)c2cccnc2SC)cc1S(=O)(=O)N1CCCCC1 | > 100 µM (inactive) | > 100 | > 100
42 | Cc1ccc(CNS(=O)(=O)c2ccc3c(c2)NC(=O)CS3)cc1 | > 100 µM (inactive) | 8.08 | 
43 | CCc1cc(C(=O)c2ccc(OC)cc2)c(NC(=O)CCC(=O)O)s1 | > 100 µM (inactive) | 49 | 50.9
44 | Cc1oc(-c2ccc(-c3ccccc3)cc2)nc1CN(C)C1CCOC1 (stereo not drawn) | > 100 µM (inactive) | > 100 | 49.9
45 | CCCCNC(=O)C[C@@H]1C[C@@]2(C(=O)OC)CCCCC=C2N(Cc2ccccc2)C1=O | > 100 µM (inactive) | > 100 | > 100
46 | CCc1ccn2cc(-c3ccc4c(c3)OCO4)nc2c1 | > 100 µM (inactive) | > 100 | > 100
47 | Cc1ccc(NC(=O)c2ccc(NCCCN3CCC(C)CC3)c([N+](=O)[O-])c2)cc1F | > 100 µM (inactive) | 11.1 | 
48 | COc1cc2cc(C(=O)Nc3ccc4c(c3)OCCO4)[nH]c2cc1OC |  | > 100 | > 100
49 | COc1ccc2cc(CO)c3cc(OC)c(OC)cc3c2c1 | > 100 µM (inactive) | > 100 | > 100
50 | O=C(NCCC1=CCCCC1)c1ccc(Cl)c(S(=O)(=O)Nc2ccccc2)c1 | > 100 µM (inactive) | > 100 | 

Row | Structure (SMILES) | AC50 [1] | AC50 [2] [µM] | AC50 [3] [µM]
51 | C[C@]12C(=O)N(c3ccc(F)cc3)C(=O)N1[C@@H]1c3ccccc3OC[C@@H]1[C@H]2c1ccccc1 |  | 5.36 | > 100
52 | CC(C)CNC(=O)c1cccc(NC(=O)C(C)Oc2ccccc2)c1 (stereo not drawn) |  | > 100 | > 100
53 | CCc1cccc(NC(=O)CCC(=O)N2CCSc3ccccc32)c1 | > 100 µM (inactive) | > 100 | 41.7
54 | CNC(=O)c1ccsc1NC(=O)c1ccc2c(c1)CCCC2 | > 100 µM (inactive) | 6.81 | > 100
55 | N#Cc1ccsc1NC(=O)CSc1nnnn1-c1ccc(O)cc1 | > 100 µM (inactive) | > 100 | 
56 | COc1ccccc1C(=O)Nc1cccc2cccnc12 | > 100 µM (inactive) | 10.2 | > 100
57 | O=C1C(c2ccccc2)c2ccccc2N1Cc1ccccc1 (stereo not drawn) | > 100 µM (inactive) | > 100 | 
58 | COc1ccccc1OCC(=O)Nc1ccc(S(=O)(=O)N2CCCCCC2)cc1 | > 100 µM (inactive) | > 100 | 
59 | Cc1cc(C(=O)c2ccc3ccccc3c2)c(C)o1 | > 100 µM (inactive) | > 100 | 
60 | O=S1(=O)c2ccc(Br)cc2OCCC2CCCCN21 (stereo not drawn) | > 100 µM (inactive) | > 100 | > 100
61 | O=C(Nc1cccc2ccccc12)c1ccc([N+](=O)[O-])o1 | > 100 µM (inactive) | > 100 | 
62 | COc1ccc(CCNc2nc(-c3ccncc3)cs2)cc1OC | > 100 µM (inactive) | > 100 | 
63 | COc1ccc2oc(C(=O)NCc3ccco3)c(C)c2c1 | > 100 µM (inactive) | > 100 | 
64 | CC(=O)NS(=O)(=O)c1ccc(NC(=O)COc2ccc(C(=O)c3ccccc3)cc2)cc1 | > 100 µM (inactive) | > 100 | 
65 | O=C(NCCc1ccccc1)c1ccc2c(c1)S(=O)(=O)c1ccccc1C2=O | > 100 µM (inactive) | > 100 | 
66 | C=CCNc1ccc2c(c1)OC[C@H](CC(C)C)NS2(=O)=O | > 100 µM (inactive) | > 100 | > 100
67 | O=c1[nH]n2c(-c3ccccc3)nc(O)c2c2ccccc12 | > 100 µM (inactive) | 36.6 | 
68 | COC(=O)c1ccccc1NC(=O)c1ccc2c(c1)CC(C)O2 (stereo not drawn) | > 100 µM (inactive) | > 100 | 
69 | O=C(Cc1ccc(NC(=O)C2CCCN(C(=O)CCc3ccccc3)C2)cc1)Nc1cccc(C(=O)N2CCCC2)c1 (stereo not drawn) | > 100 µM (inactive) | > 100 | 
70 | Cc1ccccc1-c1nc(CS(=O)(=O)CC(=O)N2CCCCC2)c(C)o1 |  | > 100 | > 100
71 | CCCCCc1nnc(NC(=O)C2COc3ccccc3O2)s1 (stereo not drawn) |  | > 100 | > 100
72 | CSc1nnnn1-c1ccc(Cl)cc1 |  | > 100 | > 100
73 | CN(c1ccccc1)S(=O)(=O)c1cccc(NC(=O)CCN2C(=O)C3CCCCC3C2=O)c1 (stereo not drawn) | > 100 µM (inactive) | 9.42 | 
74 | CCc1cc2cc(OC)ccc2nc1SCC(=O)Nc1cc(OC)c(OC)cc1C(=O)O |  | > 100 | > 100
